Common to all, as to type: cell-based, Wistar sucking mice
Assay [1] relates to cardiomyocytes. Description: Measurement of cell inhibition rate (MTT) on normal primary cardiomyocytes. The note with it: 48 h; for inhibition at 300 µM: Cardiomyocyte; for Inhibition rate (%) of cardiomyocytes: 300 μM. The method, then:
(§1) The isolation and culture of cardiomyocytes were performed by referring to the differential adhesion method (Kreider, A. Messing, H. Doan, S. U. Kim, R. P. Lisak and D. E. Pleasure, Enrichment of Schwann cell cultures from neonatal rat sciatic nerve by differential adhesion, Brain Res 2 (1981), pp. 433-444). Wistar sucking mice newborn within 24 h were used, sterilized at skin of ventrum with iodine tincture and ethanol, subjected to thoracotomy using scissors at subxiphoid median line with a deviation to left, heart was taken out after slant thoracotomy and placed in PBS precooled with ice; the heart was softly blown and beaten with 0.01 M PBS to remove blood cells and other tissues, then cut into pieces with 0.5 mm^3 size, washed with 0.01 M PBS repeatedly for 2-3 times; the pieces were placed in conical flask, added with 4 ml of 0.125% pancretin, 1 ml of 0.1% collagenase II (final concentrations separately being 0.1% and 0.02%), shaken in 37° C. water bath for 10 min, the supernatant was discarded; then 4 ml of 0.125% pancretin and 1 ml of 0.1% collagenase II again, shaken in 37° C. water bath for digestion for 10 min, the supernatant was sucked and transferred to a centrifuge tube, and the supernatant was added with DMEM containing 10% FBS to terminate digestion; the step of shaking and digestion in water bath was repeated for 3-4 times, until the tissue pieces were completely digested; the collected cell suspension was centrifuged under 1000 rpm for 10 min, the supernatant was removed, then a culture medium was added for resuspension; the resuspended cells were inoculated in a cell culture flask, placed in CO2 incubator at 37° C. for incubation for 1.5 h, then the culture medium was sucked out, countered under microscope, then DMEM culture medium containing 10% FBS was used to adjust cell density, inoculated in an amount of 1×10^4 to a 96-well plate, placed in 5% CO2 incubator at 37° C. for 24 h, then half medium was replaced, a culture medium containing 0.1% Brdu was supplementally added; then the medium was replaced once per 48 h, and primary cardiomyocytes were obtained after 4 days of cultivation.
The isolated primary culture of cardiomyocytes was inoculated in an amount of 10^4 cells per well to a 96-well plate, and the volume of each well was 100 μl (marginal wells were filled with sterile PBS). […] After continuous inoculation for 48 h, each well was added with 20 μl of MTT solution (5 mg/ml, formulated with PBS (pH=7.4), i.e., 0.5% MTT), and the cultivation was continued for 4 h. After the end of cultivation, culture medium in wells was carefully sucked out. Each well was added with 150 μl of DMSO, shaken at a low speed in a shaking table for 10 min, so that the crystal was sufficiently dissolved. The optical density (OD) value of each well was measured at wavelength of 550 nm by enzyme-linked immunoassay instrument, and each well was repeatedly measured for 5 times and the results were recorded.

Assay [2] deals with TG-induced cardiomyocytes apoptosis. Description: Protection against TG-induced cardiomyocyte apoptosis (MTT). The method, then:
as §1
The isolated primary culture of cardiomyocytes was inoculated in an amount of 10^4 cells per well to a 96-well plate, and the volume of each well was 100 μl (marginal wells were filled with sterile PBS). After being cultivated in 5% CO2 and 37° C. incubator for 4 d, they were added with the compound of Formula I at different concentrations (0.3 μM, 1 μM, 3 μM, 10 μM, 30 μM, 100 μM), 3 double-wells were set for each concentration, at the same time, zero setting wells (culture medium, MTT, DMSO), and control wells (culture medium, DMSO) were also set. After continuous inoculation for 48 h, each well was added with 20 μl of MTT solution (5 mg/ml, formulated with PBS (pH=7.4), i.e., 0.5% MTT), and the cultivation was continued for 4 h. After the end of cultivation, culture medium in wells was carefully sucked out. Each well was added with 150 μl of DMSO, shaken at a low speed in a shaking table for 10 min, so that the crystal was sufficiently dissolved. The optical density (OD) value of each well was measured at wavelength of 550 nm by enzyme-linked immunoassay instrument, and each well was repeatedly measured for 5 times and the results were recorded.
Cardiomyocytes were subjected to the primary culture for 4 days according to the above method, and then added with thapsigargin (TG) to induce apoptosis. The compound of the present invention was added for pretreatment 30 min before inducing apoptosis. […] TG was formulated with DMSO, the mother liquid was of 4 mM; and the compound of the present invention was formulated with DMSO, and the mother liquid was of 150 mM. The cell survival rate was measured according to the above MTT method, so as to test the protection effects of the compound of the present invention on the TG-induced cardiomyocytes apoptosis, and the results are shown in Table 2. […]

The test system of assay [3] is cardiomyocyte apoptosis induced by anoxia. Description: Protection against anoxia-induced cardiomyocyte apoptosis (HCS fluorescence staining). The note with it: for Nucleus area (%): Hoechst staining; for Mitochondrial transmembrane potential: MitoTracker Red. As to the method:
as §1
Cardiomyocyte was obtained by primary culture according to Example 18, cell density 10^4/mL, each wall was added with 100 μL of suspension of the cells. The cells were incubated at 37° C., 5% CO2 environment for 96 h (replacing solution once per 48 h). After primary culture for 4 days, cell apoptosis was induced by placing in an anoxia incubator, the compounds of the present invention at different concentrations were added for pretreatment 30 min before inducing cell apoptosis, then placed in 37° C., 5% CO2-95% N2 incubator and cultured for 15.5 h. It was 30 min before the compound incubation finished, 50 μL of culture medium, 50 μL of Mitotracker/Hoechst solution, were added, and the cells were then continuously cultured at 37° C., 5% CO2-95% N2 for 30 min.
Each well was directly added with 100 μL of fixing solution, without sucking out the culture medium, incubated at room temperature in fume cupboard for 10 min. The pre-heated fixing solution was very important for keeping cell integrity.
The solution of each well was sucked out (the plate could be turned over), washed with 1× Wash Buffer (100 μL/well) once. Carefulness was kept during operation and washing procedure to maintain cell adhesion and integrity. Good results could be obtained by slowly sucking and releasing liquid. Wash Buffer was sucked out, 1× penetrating membrane solution (100 uL/well) was added, incubated at room temperature for 15 min. The penetrating membrane solution was sucked out, each well was washed once with 100 μL/well of 1× Wash Buffer. The Wash Buffer was sucked out, each well was added with 50 μL of Alexa Fluor 488 Phalloidin Solution, incubated at room temperature in dark for 30 min. The Alexa Fluor 488 Phalloidin solution was sucked out, washed with 1× Wash Buffer for three times, and the solution of the last time was kept in the well. […]

[4] abbreviates: compound 0.3 μM + TG 0.4 uM, pretreatment 30 min.
The mark [5] stands for this setting: compound 1 μM + TG 0.4 uM, pretreatment 30 min.
Where [6] appears, read: compound 3 μM + TG 0.4 uM, pretreatment 30 min.
Where [7] appears, read: compound 10 μM + TG 0.4 uM, pretreatment 30 min.

Regarding `O=C(/C=C/c1cccs1)NC(NC(=S)NC1CCCCCC1)C(Cl)(Cl)Cl` (stereo not drawn) [Example 11, (2E)-3-(2-thienyl)-N-(1-cycloheptylaminothioformylamino-2,2,2-trichloroethyl)-2-acrylamide], 300 µM produced 7.62 ± 5.77% inhibition in assay [1].

As to `COC(=O)c1ccccc1NC(=S)NC(NC(=O)/C=C/c1cccs1)C(Cl)(Cl)Cl` (stereo not drawn) [Example 10, (2E)-3-(2-thienyl)-N-[1-(2-methoxyformylanilino)thioformylamino-2,2,2-trichloroethyl]-2-acrylamide], 300 µM produced 3.24 ± 1.7% inhibition in assay [1].

As to `O=C(/C=C/c1cccs1)NC(NC(=S)NCc1ccccc1)C(Cl)(Cl)Cl` (stereo not drawn) [Example 5, (2E)-3-(2-thienyl)-N-(1-benzylaminothioformylamino-2,2,2-trichloroethyl)-2-acrylamide], the inhibition at 300 µM in assay [1] is 0.76 ± 4.04%. The “Survival rate (%) of Cardiomyocyte” value in assay [2] (setting [4]) is 82 ± 4%. For the same compound, in assay [2] (setting [5]), the “Survival rate (%) of Cardiomyocyte” value turned out to be 76 ± 8%. The “Survival rate (%) of Cardiomyocyte” value in assay [2] (setting [6]) is 74 ± 9%. In assay [3] (0.3 μM), the light flux came out at 1331.12 ± 53.30, the “Nucleus area (%)” value is given as 120.23 ± 5.49% and the Mitochondrial transmembrane potential is listed as 117.76 ± 1.87.

Regarding `O=C(/C=C/c1cccs1)NC(NC(=S)Nc1ccccc1F)C(Cl)(Cl)Cl` (stereo not drawn) [Example 8, (2E)-3-(2-thienyl)-N-[1-(2-fluoroanilino)thioformylamino-2,2,2-trichloroethyl]-2-acrylamide], in assay [1], the inhibition at 300 µM was found to be 6.82 ± 1.21%.

Take `COc1ccccc1NC(=S)NC(NC(=O)/C=C/c1cccs1)C(Cl)(Cl)Cl` (stereo not drawn) [Example 4, (2E)-3-(2-thienyl)-N-[1-(2-methoxyanilino)thioformylamino-2,2,2-trichloroethyl]-2-acrylamide]: in assay [1], the inhibition at 300 µM is 5.55 ± 2.29%.

For `CC(C)NC(=S)NC(NC(=O)/C=C/c1cccs1)C(Cl)(Cl)Cl` (stereo not drawn) [Example 7, (2E)-3-(2-thienyl)-N-[1-isopropylaminothioformylamino-2,2,2-trichloroethyl]-2-acrylamide], in assay [1], the inhibition at 300 µM came to 1.32 ± 3.42%. Moreover, the “Survival rate (%) of Cardiomyocyte” value in assay [2] (setting [5]) was determined as 69 ± 5%; in assay [2] (setting [6]) it was 70 ± 8%; in assay [2] (setting [7]) it was 77 ± 11%.

In the case of “(2E)-3-(2-thienyl)-N-[1-(4-methylpiperazinyl)thioformylamino-2,2,2-trichloroethyl]-2-acrylamide [Example 13]”, in assay [1], the “Inhibition rate (%) of cardiomyocytes” value amounted to 1.66 ± 2.70%. Also, the “Survival rate (%) of Cardiomyocyte” value in assay [2] (setting [4]) is 72 ± 3%; in assay [2] (setting [5]), 71 ± 3%; in assay [2] (setting [6]) it was 67 ± 3%. In assay [3] (3 μM), this compound showed a Mitochondrial transmembrane potential of 116.41 ± 0.64.

With `C/C=C(/C)C(=O)O[C@H]1C(C)=C2[C@H]([C@@H]1OC(=O)CCCCCCC)[C@@](C)(OC(C)=O)C[C@H](OC(=O)CCC)[C@@]1(O)[C@H]2OC(=O)[C@@]1(C)O` [TG, thapsigargin, reference compound], in assay [2] (TG alone 0.4 uM (apoptosis inducer)), the “Survival rate (%) of Cardiomyocyte” value is on record as 59 ± 1.1%.

The compound `CC(C)OCCCNC(=S)NC(NC(=O)/C=C/c1cccs1)C(Cl)(Cl)Cl` (stereo not drawn) [Example 9, (2E)-3-(2-thienyl)-N-[1-(3-isopropoxypropylamino)thioformylamino-2,2,2-trichloroethyl]-2-acrylamide] returned an inhibition at 300 µM in assay [1] of 5.3 ± 0.95%.

Take “(2E)-3-(2-thienyl)-N-[1-(1-morpholinyl)thioformyl amino-2,2,2-trichloroethyl]-2-acrylamide [Example 12]”: in assay [1], the “Inhibition rate (%) of cardiomyocytes” value is reported as 10.44 ± 5.66%. Further, the “Survival rate (%) of Cardiomyocyte” value in assay [2] (setting [4]) is on record as 79 ± 7%; in assay [2] (setting [5]), 80 ± 9%; in assay [2] (setting [6]) it was 83 ± 11%. Moreover, in assay [3] (10 μM), the “Nucleus area (%)” value came out at 102.93 ± 5.12%. For the same compound, in assay [3] (10 μM), the Mitochondrial transmembrane potential was found to be 133.11 ± 6.30.

On to `O=C(/C=C/c1cccs1)NC(NC(=S)NC1CCCCC1)C(Cl)(Cl)Cl` (stereo not drawn) [Example 6, (2E)-3-(2-thienyl)-N-(1-cyclohexylaminothio formylamino-2,2,2-trichloroethyl)-2-acrylamide], for which testing at 300 µM in assay [1] gave an inhibition of 5.54 ± 3.61%. Moreover, in assay [2] (setting [5]), the “Survival rate (%) of Cardiomyocyte” value is listed as 76 ± 7%. Further, the “Survival rate (%) of Cardiomyocyte” value in assay [2] (setting [6]) came out at 70 ± 6%. The “Survival rate (%) of Cardiomyocyte” value in assay [2] (setting [7]) was 78 ± 9%. Moreover, in assay [3] (1 μM), the light flux worked out at 1077.08 ± 55.63, the “Nucleus area (%)” value came out at 100.00 ± 4.63% and the Mitochondrial transmembrane potential came out at 112.92 ± 0.82.

For `O=C(/C=C/c1cccs1)NC(NC(=S)Nc1cccc2cccnc12)C(Cl)(Cl)Cl` (stereo not drawn) [Example 1, (2E)-3-(2-thienyl)-N-[1-(8-quinolylamino)thioformylamino-2,2,2-trichloroethyl]-2-acrylamide], in assay [3] (10 μM), the light flux came to 1201.92 ± 29.95, the “Nucleus area (%)” value amounted to 112.61 ± 7.78% and the Mitochondrial transmembrane potential was 112.68 ± 1.46.

With `CS/C(=N\C(NC(=O)/C=C/c1cccs1)C(Cl)(Cl)Cl)Nc1cccc2cccnc12` (stereo not drawn) [Example 14, (2E)-3-(2-thienyl)-N-[1-(8-quinolylamino)methylthiomethenylamino-2,2,2-trichloroethyl]-2-acrylamide], in assay [1], the inhibition at 300 µM came to 8.34 ± 5.78%.

Broadly, the inhibition is the drop in the measured response relative to a control, in per cent. Lower therefore signals little suppression.

Source of the values: patent publication US9199978B2, “Acrylamide compounds and use thereof for inhibiting apoptosis” (CHINESE PLA GENERAL HOSPITAL, priority 2010, dated 2015).
